Results: PMC3433162 (Analytical chemistry, 2012)

Key:
[1] = biological target: bovine carbonic anhydrase (BCA) (Bos taurus, UniProt P00921); assay: biochemical; assay type: binding
carbonic anhydrase = conditions: read-out: Kd or Ki; cited from earlier work

Chain of bovine carbonic anhydrase (BCA) (P00921 whole entry): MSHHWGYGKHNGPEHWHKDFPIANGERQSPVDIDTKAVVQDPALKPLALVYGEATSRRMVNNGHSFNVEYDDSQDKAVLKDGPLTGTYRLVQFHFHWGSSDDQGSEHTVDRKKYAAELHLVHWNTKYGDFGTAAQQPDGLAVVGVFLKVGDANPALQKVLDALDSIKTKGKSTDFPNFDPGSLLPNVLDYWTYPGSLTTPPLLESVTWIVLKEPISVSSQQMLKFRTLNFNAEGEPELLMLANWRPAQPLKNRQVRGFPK

Kd [1] [µM]	Compound	Kd (carbonic anhydrase) [µM]
0.29	Cc1ccc(S(N)(=O)=O)cc1 [4-methylbenzene sulfonamide]	
	methane sulfonamide	70 to 320
